Values of other authors as cited in patent publication US20240066044A1, “METHODS AND COMPOSITIONS FOR INCREASING NAD+ METABOLOME IN HEALTHY MIDDLE-AGED POPULATION” (Bioenergy Life Science, Inc., priority 2021, published 2024).
Read-outs that look alike come from different tables or passages of the source.

In the case of `NC(=O)c1cccnc1` [NAM, nicotinamide], the “doses at which NAM is ineffective for boosting NAD+” value (NAD+) is given as “below 90 mg per day”, the “daily tolerable upper dietary intake” value (Canada) is given as 500 mg and the “daily tolerable upper dietary intake” value (EU) is given as 900 mg. For the same molecule, the “daily tolerable upper dietary intake” value (Japan) was 5 mg/kg.
